Experimental data as given in patent US12618044B2, “Specification of functional cranial placode derivatives from human pluripotent stem cells” (MEMORIAL SLOAN-KETTERING CANCER CENTER, priority 2013, dated 2026).
Where no end group is shown, it is not given here.

What was measured:
Assay type in all cases: cell-based, human
[1] = tested on: SIX1::GFP cells; assay: High throughput screen for compounds that promote placode induction; conditions: added at day 3, imaged at day 6
Protocol: High throughput screen for compounds that promote placode induction: SIX1::GFP cells were cultured according to the PIP-E6 protocol. 1280 test compounds were screened for their ability to enhance placode induction. Each test compound was added to the cell culture media at day 3, and cells were imaged to determine the level of placode induction at day 6. (FIG. 60).

[2] = tested on: SIX1::H2B-GFP reporter cells; assay: PIP-E6 placode induction in E8/E6 media
Source text: PIP protocol using E8/E6 cell culture media: E8/E6 cell culture media (Essential8™/Essential6™, Nat Methods. 2011 May; 8(5):424-9) comprises the ingredients DMEM/F12, ascorbic acid, selenum, insulin, NaHCO3, transferrin, FGF2 and TGFβ. […] The present example describes a modified PIP protocol that utilizes the BMP deficient E8/E6 media.
A Six1 knock in GFP reporter cell line (SIX1::H2B-GFP) was developed to monitor when cells have been transformed to a placode fate. (FIGS. 41A-41E). Culturing the reporter cells in E8/E6 media according to the KSR PIP protocol described herein, in which cells were cultured in media comprising the SMAD inhibitors SB431542 and LDN193189, wherein LDN193189 was withdrawn after 2 days of culture, yielded low levels of placode cells after 11 days of culture. (FIGS. 42A-42B). BMP4, which is not present in E8/E6 media, is necessary for cells to differentiate into non-neural ectoderm and placode, as evidenced by expression of the marker AP2. (FIGS. 43A-43C). […] (FIGS. 44A-44C). […] (FIGS. 45A-45B). […] (FIGS. 46 and 47). Although the yield of induced placode cells was low using the PIP-E6 protocol, the induction was highly consistent compared to the KSR PIP protocol. (FIG. 48).
In order to make the trigeminal placode fate the default fate when culturing using the PIP-E6 protocol, PIP-E6 was modified by adding CHIR (Wnt activator) to the culture protocol. […] (FIGS. 49A-49B). FIG. 50 depicts the pituitary, lens and trigeminal placodes that can be induced using the PIP-E6 culture protocol.

[3] = tested on: hESC; assay: Placode induction from hESC (N-SB versus PIP, SIX1 expression); conditions: for placode fate: high concentrations, starting at day 3 of PIP
Protocol: A timed withdrawal of the BMP inhibitor Noggin during N-SB differentiation was also tested to determine if placodal fates could be induced via derepressing endogenous BMP signaling. A time course analysis was performed during which Noggin was removed at different time points of the N-SB protocol (FIG. 28A).
Withdrawal of the BMP inhibitor noggin during N-SB differentiation may enhance the emergence of placodal fates by de-repressing endogenous BMP signaling. To this end, a time course study was performed by removing noggin at different time points of the NSB protocol (FIG. 11A) while monitoring the induction of placodal marker (FIG. 11B) trophoectodermal, neurectodermal by qRT-PCR analysis at day 11 of differentiation. Withdrawal of noggin at day 2 or 3 of differentiation yielded efficient induction of Six1 while noggin withdrawal at day 1 of differentiation lead to the induction of Eya1 in the absence of Six1 expression.
Neural Induction and placode induction: Feeder-free neural induction was carried out as previously described (Chambers et al., 2009). Briefly, hESCs cultures were disaggregated using accutase for 20 minutes, washed using hESCs media and pre-plated on gelatin for 1 hour at 37° C. in the presence of ROCK inhibitor to remove MEFs. The non-adherent hESCs were washed and plated on matrigel at a density of 60,000 cells/cm2 on matrigel (BD) coated dishes in MEF conditioned hESCs media (CM) spiked with 10 ng/mL of FGF-2 and ROCK-inhibitor. The ROCK inhibitor was withdrawn after 24 hours, and hESCs were allowed to expand in CM for 2 days or until they were 95% confluent. The initial differentiation media conditions included knock out serum replacement (KSR) media with 10 μM TGF-β inhibitor (SB431542, Tocris) and 250 ng/mL of Noggin (R&D). Upon day 5 of differentiation, increasing amounts of N2 media (25%, 50%, and 75%) were added to the KSR media every two days while maintaining […] of Noggin and TGF-β inhibitor. Similar results could be obtained when using KSR-free conditions (E6 medium (Chen et al., 2011)) following adjustments in BMP signaling; data not shown). For placode induction, Noggin was removed at day3 of differentiation. In some experiments, BMP-4 (R&D 50 ng/ml), Noggin (R&D 250 ng/ml), DKK-1 (R&D 100 ng/ml), FGF8 (R&D 50 ng/ml), SU5402 (Tocris 10 μM), Wnt-3a (R&D 50 ng/ml), DAPT (Tocris, 10 μM), CHIR99021 (Stemgent, 3 μM), Cyclopamine (Tocris, 10 μM), Sonic Hedgehog (C25II-R&D 100 ng/ml), and Purmorphamine (Stemgent, 1 μM), were added.
Microscopy, antibodies, and flow cytometry: Cells were fixed using 4% paraformaldehyde for 15 minutes, washed with PBS, permeabilized using 0.3% Triton X in PBS, and blocked using 1% BSA. Primary antibodies used for microscopy included PAX6 (Covance, DSHB), TUJ1 (Covance), BRN3A (Chemicon), AP2a (DSHB), HNK1 (Sigma), PAX3 (DSHB), SIX1 (ABR, Atlas), ISL1 (DSHB), PERIPHERIN (Santa Cruz), GSU (gift A. McNeilly), CRYAB (Chemicon), DACH1 (Proteintech), EYA1 (gift Kawakami), E-CADHERIN (Abcam), FSH (gift A. McNeilly), GATA2 (Abcam), chick GFP (Abcam), hNCAM (Santa Cruz), GLUTAMATE (Sigma), KRT14 (Labvision), SIX6 (Atlas), LHX3 (Abcam), OVOL2 (Aviva), TFAP2A (DSHB), FOXG1 (gift E. Lai), hCA (Stem Cells), and Ki67 (Sigma). Appropriate Alexa 488, Alexa 568, Alexa 647 secondary antibodies (Molecular Probes) and/or DAPI counterstaining was used for visualization. For Flow Cytometry, cells were mechanically dissociated after exposure to accutase for 20 min at 25° C. To eliminate dead cell populations in FACS analysis, we used DAPI or 7-AAD according to manufacturer's recommendation. Cells were analyzed using FACScan (Becton Dickinson) and FlowJo software (Tree Star, Inc.).

[4] = tested on: pre-placode cells; assay: Lens placode specification (PITX3 qRT-PCR); conditions: added days 7-11, read at day 16
Protocol: The impact of four developmental signaling pathways on lens placode specification was tested by using activators and inhibitors of BMP, FGF, WNT, and Hedgehog signaling. To quantify the induction of lens placode fate, the lens precursor marker PITX3 expression was monitored at day 16 of differentiation (FIG. 37B). […] A role for BMPs and FGFs has been previously proposed in developmental studies in the chick (Sjödal et al., 2007). […] The characteristic layering of lens fibers (FIG. 36H, right panel) mimicked the structural properties of developing lens in vivo.

[5] = tested on: SIX1::GFP cells; assay: PIP-E6 pituitary induction and hormone release; conditions: for number of putative pituitary stem cells (Ki67 and Sox2): days 6-14
Protocol: Induction of anterior pituitary gland cells: Pituitary placode cells were induced by culturing SIX1::GFP cells according to the PIP-E6 protocol, wherein pituitary factors SHH, FGF8, FGF10 and/or hypothalamus CM were supplemented in the culture media from days 6-15.
Induction of anterior pituitary gland cells: SIX1::GFP hPSCs were cultured according to a modified PIP-E6 protocol, wherein pituitary factors such as FGF8, FGF10 or SHH, etc., were included in the culture media from days 6-14. Cells were sorted based on expression of SIX1::GFP, and were replated at a concentration of 10,000 cells/cm^2 on PO/L/F, and were incubated with small molecule/growth factors for 2 weeks. (FIG. 68). […] (FIG. 69).

[6] = tested on: hESC derived FP; assay: A/P respecification of hESC derived FP by caudalizing factors
Protocol: For MS5 induction, established methods previously reported were used (Perrier et al., 2004). Feeder free neural induction was carried out as previously described (Chambers et al., 2009). Briefly, hESCs cultures were disaggregated using accutase for 20 minutes, washed using hESCs media and pre-plated on gelatin for 1 hour at 37° C. in the presence of ROCK inhibitor to remove MEFs. The nonadherent hESCs were washed and plated on matrigel at a density of 20,000 cells/cm2 on matrigel (BD) coated dishes in MEF conditioned hESCs media (CM) spiked with 10 ng/mL of FGF-2 and ROCK-inhibitor. The ROCK inhibitor was withdrawn, and hESCs were allowed to expand in CM for 3 days or until they were nearly confluent. The initial differentiation media conditions included knock out serum replacement (KSR) media with […] TGF-b inhibitor (SB431542, Tocris) and 500 ng/mL of Noggin (R&D). Upon day 5 of differentiation, increasing amounts of N2 media (25%, 50%, 75%) was added to the KSR media every two days while maintaining 500 ng/mL of Noggin and TGF-b inhibitor. For FP induction, Sonic C25II was added at 200 ng/ml. In some experiments, DKK-1 (R&D 100 ng/ml) FGF8 (R&D 50 ng/ml), Wnt-1 (Peprotech 50 ng/ml) and Retinoic Acid (R&D 1 uM) were added.
The inventors contemplated the use of SIX6 as a putative marker of anterior FP identity. Thus SIX6 status of the hESC derived FP was used to mark respecification in response to known caudalizing agents such as FGF8, Wnt-1, and Retinoic Acid. Each of these caudalizing factors was added in combination with SHH and the resulting tissue was assessed for expression of the FP markers FOXA2 and NETRIN-1, the AN marker BF1, and putative anterior FP marker SIX6. FP generation was found not compromised in the presence of caudalizing factors.
The inventors discovered that different factors had varied effects on marker expression (FIG. 20C).
As mentioned above, studies had identified different enhancers that directed SHH expression to different A/P region along ventral axis (Jeong et al., 2008). […] In the absence of caudalizing factors (SHH C25II alone), LacZ expression was observed herein following transfection with the SBE2 but not the SBE1 enhancer supporting the hypothesis that hESC derived FP is anterior by default (FIG. 20D). In contrast SBE2 activity was abolished upon treatment with Wnt1 or FGF8 while SBE1 activity was induced under these conditions.

## CN1CCC(c2c[nH]c3ccc(O)cc23)CC1 [BRL-54443]
[1]
  placode induction: promoting placode induction

## Cc1c[nH]c(-c2cnc(NCCNc3ccc(C#N)cn3)nc2-c2ccc(Cl)cc2Cl)n1 [CHIR99021]
[2]; days 2-4 of the PIP-E6 protocol
  default placode fate: induction of trigeminal placodes
[3]
  placode fate: suppressed placode

## O.c1cnc2c(c1)ccc1cccnc12 [Phenanthroline monohydrate]
[1]
  placode induction: promoting placode induction

## Cc1c[nH]c(/C=C2\C(=O)Nc3ccccc32)c1CCC(=O)O [SU5402]
[3]; day 3-11 of PIP
  TFAP2A expression: maintaining
  emergence of SIX1+ clusters: suppressed
[3]; day 11
  placode marker (SIX1) gene expression: complete loss
[3]; long-term cultures (day 42-60)
  KRT14 mature keratinocyte marker: robust induction
[4]
  PITX3 expression: significantly induced

## FGF2: growth factor
[5]
  number of putative pituitary stem cells (Ki67 and Sox2): may increase

## somatocrinin: external stimulus causing growth hormone release (YADAIFTNSYRKVLGQLSARKLLQDIMSRQQGESNQERGARARL; ends and bridges not checked; UniProt P01286 32-75, looked up)
[5]; hormone expressing cells
  growth hormone (GH) release: released growth hormone (GH)

B1: FGF8: caudalizing factor / pituitary patterning factor (protein, UniProt P55075 23-233, looked up)
Fibroblast growth factor 8: QEGPGRGPALGRELASLFRAGREPQGVSQQHVREQSLVTDQLSRRLIRTYQLYSRTSGKHVQVLANKRINAMAEDGDPFAKLIVETDTFGSRVRVRGAETGLYICMNKKGKLIAKSNGKGKDCVFTEIVLENNYTALQNAKYEGWYMAFTRKGRPRKGSKTRQHQREVHFMKRLPRGHHTTEQSLRFEFLNYPPFTRSLRGSQRTWAPEPR
[6]; SHH enhancer LacZ construct
  SBE1 activity: induced
  SBE2 activity: abolished
[6]; in combination with SHH
  SIX6 expression: significant reduction
[5]
  number of putative pituitary stem cells (Ki67 and Sox2): may increase
[3]; pre-placode cells
  ASCL1 expression: enriches

B2: BMP4: recombinant bone morphogenetic protein-4, activator of BMP signaling (protein, UniProt P12644 293-408, looked up)
Bone morphogenetic protein 4: SPKHHSQRARKKNKNCRRHSLYVDFSDVGWNDWIVAPPGYQAFYCHGDCPFPLADHLNSTNHAIVQTLVNSVNSSIPKACCVPTELSAISMLYLDEYDKVVLKNYQEMVVEGCGCR
[2]; 5 ng/ml, with SB431542, withdrawn after 3 days
  cell fate induced: placode development
[2]; 5 ng/ml, withdrawn after 3 days versus 1 or 2 days, 6 total days
  yield of placode precursors: highest yield of placode precursors
[2]; 20 ng/ml
  cell fate induced: induction of non-neural ectoderm
[3]
  placode fate: suppressed placode
[3]; in the presence of SB
  CDX2 induction: triggered induction of CDX2
[4]
  PITX3 expression: significantly induced
